Data: patent publication US20250312469A1 (CANGET BIOTEKPHARMA, priority 2024, published 2025)
Read-outs that look alike come from different tables or passages of the source. Marks after values point to notes of the source that are not given here.

[1] = Female, 4.69→ 2 mg/kg/wk, Day 15
[2] = female rats, 4.69→2 mg/kg/wk, Day 15
[3] = female rats, Group 3, 3.75/2.5 mg/kg/wk oral, Day 15
[4] = female rats, Group 4, 4.69/2 mg/kg/wk oral, Day 15
[5] = male rats, 4.69→2 mg/kg/wk, Day 15, 2 animals
[6] = male rats, Group 2, 3 mg/kg/wk, Day 15

CCC1(O)C(=O)OCc2c1cc1n(c2=O)Cc2cc3cc4c(cc3nc2-1)OCO4 (centres unmarked) [FL118]
decrease of body weight, males, Day 14 (3 mg/kg/wk): 18.15% | decrease of body weight, males, Day 14 (3.75→2.5 mg/kg/wk): 17.41% | mortality (4.69 (day 1) and 2 mg/kg/wk (day 8)): two male mice died on day 6 and day 12 | decrease of body weight, males, Day 14 (4.69→2 mg/kg/wk): 47.53% | #LYMP, percent difference in mean values from concurrent controls [1]: −37.76% | WBC, percent difference in mean values from concurrent controls [1]: −33.69% | WBC, percent difference in mean values from concurrent controls (Male, 3 mg/kg/wk, Day 15): −16.11% | WBC, percent difference in mean values from concurrent controls (Male, 3.75→ 2.5 mg/kg/wk, Day 15): −11.98% | #LYMP, percent difference in mean values from concurrent controls (Male, 4.69→ 2 mg/kg/wk, Day 15): −57.17% | WBC, percent difference in mean values from concurrent controls (Male, 4.69→ 2 mg/kg/wk, Day 15): −52.17% | ALT, percent difference in mean values from concurrent controls [2]: 122% | sGLU, percent difference in mean values from concurrent controls [2]: −19.47% | #BASO, basophils, absolute, Mean [3]: 0.01 10^3/μL | #EOS, eosinophils, absolute, Mean [3]: 0.07 10^3/μL | #LYMP, lymphocytes, absolute, Mean [3]: 5.87 10^3/μL | #MONO, monocytes, absolute, Mean [3]: 0.17 10^3/μL | #NEUT, neutrophils, absolute, Mean [3]: 0.87 10^3/μL | % BASO, basophils, percent, Mean [3]: 0.2% | % EOS, eosinophils, percent, Mean [3]: 1.0% | % LYMP, lymphocytes, percent, Mean [3]: 83.5% | % MONO, monocytes, percent, Mean [3]: 2.4% | % NEUT, neutrophils, percent, Mean [3]: 12.1% | % RET, reticulocytes, percent, Mean [3]: 5.05% | ALB, albumin, Mean [3]: 37.5 g/L | ALP, alkaline phosphatase, Mean [3]: 83 U/L | ALT, alanine aminotransferase, Mean [3]: 33 U/L | AST, aspartate aminotransferase, Mean [3]: 89 U/L | BIL-T, total bilirubin, Mean [3]: 1.59 µmol/L | CK, creatine kinase, Mean [3]: 247 U/L | CRE, creatinine, Mean [3]: 24 µmol/L | Ca, calcium, Mean [3]: 2.42 mmol/L | GLB, globulin, Mean [3]: 23.0 g/L | HCT, hematocrit, Mean [3]: 19.8% | HGB, hemoglobin, Mean [3]: 13.2 g/dL | K, potassium, Mean [3]: 4.3 mmol/L | MCH, mean corpuscular hemoglobin, Mean [3]: 19.3 pg | MCHC, mean corpuscular hemoglobin concentration, Mean [3]: 33.3 g/dL | MCV, mean corpuscular volume, Mean [3]: 58.0 fL | MPV, mean platelet volume, Mean [3]: 6.8 fL | Na, sodium, Mean [3]: 142 mmol/L | P, inorganic phosphorus, Mean [3]: 2.20 mmol/L | PLT, platelet count, Mean [3]: 1295 10^3/μL | RBC, red blood cell, Mean [3]: 6.88 10^6/μL | RDW, RBC distribution width, Mean [3]: 12.9* % | TCHO, total cholesterol, Mean [3]: 1.70 mmol/L | TG, triglyceride, Mean [3]: 0.26 mmol/L | UREA, urea, Mean [3]: 6.29 mmol/L | WBC, white blood cell, Mean [3]: 7.03 10^3/μL | sGLU, glucose, Mean [3]: 9.43 mmol/L | #BASO, basophils, absolute, Mean [4]: 0.01 10^3/μL | #EOS, eosinophils, absolute, Mean [4]: 0.05 10^3/μL | #LYMP, lymphocytes, absolute, Mean [4]: 4.03 10^3/μL | #MONO, monocytes, absolute, Mean [4]: 0.13 10^3/μL | #NEUT, neutrophils, absolute, Mean [4]: 0.62 10^3/μL | % BASO, basophils, percent, Mean [4]: 0.1% | % EOS, eosinophils, percent, Mean [4]: 1.0% | % LYMP, lymphocytes, percent, Mean [4]: 82.7% | % MONO, monocytes, percent, Mean [4]: 2.9% | % NEUT, neutrophils, percent, Mean [4]: 12.7% | % RET, reticulocytes, percent, Mean [4]: 4.79% | ALB, albumin, Mean [4]: 36.6 g/L | ALP, alkaline phosphatase, Mean [4]: 88 U/L | ALT, alanine aminotransferase, Mean [4]: 75 U/L | AST, aspartate aminotransferase, Mean [4]: 222 U/L | BIL-T, total bilirubin, Mean [4]: 2.66 µmol/L | CK, creatine kinase, Mean [4]: 427 U/L | CRE, creatinine, Mean [4]: 24 µmol/L | Ca, calcium, Mean [4]: 2.37 mmol/L | GLB, globulin, Mean [4]: 22.0 g/L | HCT, hematocrit, Mean [4]: 40.0% | HGB, hemoglobin, Mean [4]: 13.6 g/dL | K, potassium, Mean [4]: 4.6 mmol/L | MCH, mean corpuscular hemoglobin, Mean [4]: 19.6 pg | MCHC, mean corpuscular hemoglobin concentration, Mean [4]: 33.8 g/dL | MCV, mean corpuscular volume, Mean [4]: 57.8 fL | MPV, mean platelet volume, Mean [4]: 6.7 fL | Na, sodium, Mean [4]: 142 mmol/L | P, inorganic phosphorus, Mean [4]: 1.92 mmol/L | PLT, platelet count, Mean [4]: 1278 10^3/μL | RBC, red blood cell, Mean [4]: 6.94 10^6/μL | RDW, RBC distribution width, Mean [4]: 13.7* % | TCHO, total cholesterol, Mean [4]: 1.37 mmol/L | TG, triglyceride, Mean [4]: 0.29 mmol/L | TP, total protein, Mean [4]: 58.5 g/L | UREA, urea, Mean [4]: 9.54 mmol/L | WBC, white blood cell, Mean [4]: 4.85 10^3/μL | sGLU, glucose, Mean [4]: 8.25 mmol/L | ALT, percent difference in mean values from concurrent controls (male rats, 3 mg/kg/wk, Day 15): 19% | ALT, percent difference in mean values from concurrent controls (male rats, 3.75→2.5 mg/kg/wk, Day 15): 34% | ALT, percent difference in mean values from concurrent controls [5]: 275% | sGLU, percent difference in mean values from concurrent controls [5]: −59.96% | #BASO Mean [6]: 0.02 10^3/μL | #EOS Mean [6]: 0.06 10^3/μL | #LYMP Mean [6]: 7.94 10^3/μL | #MONO Mean [6]: 0.21 10^3/μL | #NEUT Mean [6]: 0.72 10^3/μL | #RET Mean [6]: 337.2 10^9/L | % BASO Mean [6]: 0.2% | % EOS Mean [6]: 0.7% | % LYMP Mean [6]: 88.2% | % MONO Mean [6]: 2.5% | % NEUT Mean [6]: 7.9% | % RET Mean [6]: 4.68% | HCT Mean [6]: 42.1* % | MCH Mean [6]: 19.2 pg | MCHC Mean [6]: 32.8 g/dL | MCV Mean [6]: 58.3 fL | MPV Mean [6]: 6.6 fL | PLT Mean [6]: 1172 10^3/μL | RBC Mean [6]: 7.22 10^6/μL | RDW Mean [6]: 13.5** % | WBC Mean [6]: 9.01 10^3/μL | #BASO % Diff (male rats, Group 2, 3 mg/kg/wk, Day 15, vs Group 1): −25.00%
